{
  "source": "patent US7501397B2",
  "about": "“Helical peptidomimetics with enhanced activity” (The Brigham and Women's Hospital, Inc., priority 2004, dated 2009)",
  "key": {"[1]": {"system": "Aβ production in Chinese hamster ovary (CHO) cells stably transfected with human APP", "test": "cell-based assay of total Aβ production in CHO cells stably transfected with human APP", "excerpt": "Based on the helical model for the APP transmembrane domain, short peptides were designed to adopt a similar conformation that block γ-secretase activity. Judicious replacement of selected residues of short APP-derived peptides with 2-aminoisobutyric acid (Aib), a known helix-inducing amino acid (19, 20), provided peptides that, in principle, mimic the γ-secretase cleavage site on one face of the helix, with Aib residues on the other face. Aib-containing peptides were identified that inhibit Aβ production in APP-transfected cells with 50 percent inhibitory concentrations (IC50's) as low as 2 μM. […] The crystal structure of this compound has been determined, and the peptide is fully helical (19). In certain embodiments the compounds of the invention have structures that are based on the partial APP sequence Val-Gly-Gly-Val-Val-Ile-Ala-Thr-Val-Ile-Val-Ile (SEQ ID NO:12; see FIG. 1). Basing the structures of the compounds of the invention on the partial APP sequence could enhance in vivo specificity of the compounds.\nThe top set of peptidomimetics (SEQ ID NOs: 1-5) was designed considering the cleavage leading to Aβ42, and the bottom set (SEQ ID NOs: 6-10) was designed considering the cleavage site leading to Aβ40. IC50 is the concentration of compound that reduced production of total Aβ by 50% in a cell-based assay using Chinese hamster ovary (CHO) cells stably transfected with human APP.\nStarting from the reference D-decapeptide having SEQ ID NO:10 (IC50=90 nM), the enantiomers of the helical peptide L-series were tested for inhibitory activity. […] This greater than 40-fold loss of activity compared to the cell-free assay may be due to the need to enter into and/or cross cell membranes or some susceptibility to metabolic degradation."}, "γ-secretase [2]": {"molecular_target": "T1, γ-secretase (Homo sapiens, UniProt P49768)", "test": "cell-free γ-secretase assay using detergent-solubilized membranes from HeLa cells and a recombinant APP-based substrate", "type": "biochemical", "parameters": "detergent-solubilized membranes from HeLa cells; endogenous in cells; host or cells: HeLa cells (detergent-solubilized membranes)", "procedure": "Compounds were tested in a γ-secretase assay using detergent-solubilized membranes from HeLa cells and a recombinant APP-based substrate (Table 2, 18). […] Moreover, the γ-secretase inhibition appears to show dependence on length."}, "γ-secretase [3]": {"molecular_target": "T1, γ-secretase", "details": "photoaffinity labeling; Kornilova et al. 2005; cited from earlier work"}, "γ-secretase [4]": {"molecular_target": "T1, γ-secretase", "parameters": "detergent-solubilized membranes from HeLa cells; endogenous in cells; host or cells: HeLa cells (detergent-solubilized membranes)", "details": "value from Ref. 22, cited from earlier work"}, "[5]": {"details": "APP-transfected CHO cells, read-out: IC50, cell-based assay"}, "[6]": {"details": "CHO cells stably transfected with human APP, total Aβ, read-out: IC50 (concentration that reduced production of total Aβ by 50%)"}},
  "note": "Where two headings read alike, the source gives them in different places. Non-standard residues stand in square brackets, D forms with d. Residues, ends and D or L forms follow the SMILES beside them. *: point of attachment. Boc = CC(C)(C)OC(=O)*; Aib = CC(C)(N)C(=O)O; Bn = c1ccc(C*)cc1",
  "data": [
    {"molecule": "CC[C@@H](C)[C@@H](NC(=O)[C@H](NC(=O)[C@H](NC(=O)C(C)(C)NC(=O)CNC(=O)[C@H](NC(=O)OC(C)(C)C)C(C)C)C(C)C)C(C)C)C(=O)NC(C)(C)C(=O)N[C@@H](C(=O)N[C@@H](C(=O)NC(C)(C)C(=O)N[C@@H](C(=O)N[C@@H](C(=O)NC(C)(C)C(=O)OC)[C@H](C)CC)C(C)C)C(C)C)[C@H](C)OCc1ccccc1", "note": "[SEQ ID NO:18 D-peptide, Boc-Val-Gly-Aib-Val-Val-Ile-Aib-Thr(OBz)-Val-Aib-Val-Ile-Aib-OMe] (Boc-[dV]G[Aib][dV][dV][dI][Aib][dT](Bn)[dV][Aib][dV][dI][Aib]-OMe)", "values": [
      {"measurement": "IC50", "setting": "[1]; [5]", "value": "0.009 ± 0.001", "unit": "µM"},
      {"measurement": "loss of activity in cell-based assay compared to the cell-free assay", "setting": "[1]; cell-based vs cell-free IC50", "value": "greater than 40 fold"},
      {"measurement": "IC50, in words", "setting": "γ-secretase [2]", "value": "subnanomolar"},
      {"measurement": "times more active than the other analogs of the D-series", "setting": "γ-secretase [2]; D-series, cell-free assay", "value": 100, "unit": "times"},
      {"measurement": "IC50", "setting": "γ-secretase [2]; read-out: IC50, cell-free γ-secretase assay", "value": 0.00014, "unit": "µM"}
    ]},
    {"molecule": "Boc-Aib-Val-Val-Ile-Aib-Thr(OBz)-Val-Aib-OMe [SEQ ID NO:8]", "values": [
      {"measurement": "IC50", "setting": "[1]; [6]", "value": 6, "unit": "µM"}
    ]},
    {"molecule": "Boc-Gly-Aib-Val-Val-Ile-Aib-Thr(OBz)-Val-Aib-OMe [SEQ ID NO:9]", "values": [
      {"measurement": "IC50", "setting": "[1]; [6]", "value": 3, "unit": "µM"}
    ]},
    {"molecule": "Boc-D-Val-Gly-Aib-D-Val-D-Val-D-BPA-Aib-D-Thr(OBz)-D-Val-Aib-OMe [SEQ ID NO:11]", "values": [
      {"measurement": "IC50", "setting": "[1]; [5]", "value": 0.1, "unit": "µM"}
    ]},
    {"molecule": "Boc-Val-Gly-Aib-Val-Val-Ile-Aib-Thr(OBz)-Val-Aib-OMe [SEQ ID NO:10 D-peptide]", "values": [
      {"measurement": "site of interaction with γ-secretase", "setting": "γ-secretase [3]", "value": "interacts with the initial substrate-binding site, but not the active site"},
      {"measurement": "IC50", "setting": "γ-secretase [4]; 50% inhibition of Aβ40 production, read-out: Cell-free Assay IC50", "value": 0.09, "unit": "µM"}
    ]},
    {"molecule": "Boc-Ile-Ala-Thr(OBz)-Aib-Ile-Val-Aib-OMe [SEQ ID NO:2]", "values": [
      {"measurement": "IC50", "setting": "[1]; [6]", "value": 15, "unit": "µM"}
    ]},
    {"molecule": "Boc-Val-Val-Ile-Aib-Thr(OBz)-Val-Aib-OMe [SEQ ID NO:7]", "values": [
      {"measurement": "IC50", "setting": "[1]; [6]", "value": 6, "unit": "µM"}
    ]},
    {"molecule": "Boc-Aib-Ile-Ala-Thr(OBz)-Aib-Ile-Val-Aib-OMe [SEQ ID NO:3]", "values": [
      {"measurement": "IC50", "setting": "[1]; [6]", "value": 10, "unit": "µM"}
    ]},
    {"molecule": "Boc-Val-Gly-Aib-Val-Val-Ile-Aib-Thr(OBz)-Val-Aib-OMe [SEQ ID NO:10 L-peptide]", "values": [
      {"measurement": "IC50", "setting": "[1]; [6]", "value": 3, "unit": "µM"},
      {"measurement": "IC50", "setting": "γ-secretase [4]; reference decapeptide, read-out: IC50, cell-free γ-secretase assay", "value": 30, "unit": "µM"}
    ]},
    {"molecule": "Ac-Val-Gly-Aib-Val-Val-Ile-Aib-Thr(OBz)-Val-Aib-Val-Val-Aib-NH2 (Ac-VG[Aib]VVI[Aib]XV[Aib]VV[Aib]-NH2; not fully specified (some residues); printed as Ac-Val-Gly-Aib-Val-Val-Ile-Aib-Thr(OBz)-Val-Aib-Val-Val-Aib-NH2) [SEQ ID NO:23 D-peptide]", "values": [
      {"measurement": "site of interaction with γ-secretase", "setting": "γ-secretase [3]", "value": "not only interact with the initial substrate-binding site but also extend into the active site"}
    ]}
  ]
}
